Assay results as given in patent publication US10213433B2 (AbbVie Inc., priority 2010, dated 2019).

Key:
[1] = log D at pH 7.4 by an HPLC method; type: physicochemical
Source text: Table 2 below presents data for log D (a parameter related to lipophilicity) at pH 7.4, as determined by an HPLC method, for representative compounds.

Bcl-2 protein = Bcl-2 protein (Homo sapiens (Human), UniProt P10415); assay: Bcl-2 binding TR-FRET (Time-Resolved Fluorescence-Resonance-Energy-Transfer) assay; conditions: inhibition constant for binding to Bcl-2 protein
Source text: The smaller the Ki value, the greater is the binding affinity.

Chain of Bcl-2 protein (P10415 whole entry): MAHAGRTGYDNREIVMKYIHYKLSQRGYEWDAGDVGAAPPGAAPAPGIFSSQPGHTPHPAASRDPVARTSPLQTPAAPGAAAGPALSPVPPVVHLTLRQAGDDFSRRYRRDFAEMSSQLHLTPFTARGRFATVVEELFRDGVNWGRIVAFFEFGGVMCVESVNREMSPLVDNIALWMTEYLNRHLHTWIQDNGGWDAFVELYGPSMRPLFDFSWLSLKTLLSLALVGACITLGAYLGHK

Row | log D [1] | Compound | chromatographic logD [1] | Ki (Bcl-2 protein) [nM]
1 |  | CC1(C)CCC(CN2CCN(c3ccc(C(=O)NS(=O)(=O)c4ccc(OCC5COCCO5)c([N+](=O)[O-])c4)c(Oc4cnc5[nH]ccc5c4)c3)CC2)=C(c2ccc(Cl)cc2)C1 (stereo not drawn) [Compound 12, 4-(4-{[2-(4-chlorophenyl)-4,4-dimethylcyclohex-1-en-1-yl]methyl}piperazin-1-yl)-N-{[4-(1,4-dioxan-2-ylmethoxy)-3-nitrophenyl]sulfonyl}-2-(1H-pyrrolo[2,3-b]pyridin-5-yloxy)benzamide] | 5.17 | < 0.01
2 |  | CC1(C)CCC(CN2CCN(c3ccc(C(=O)NS(=O)(=O)c4ccc(OCC5CCOCC5)c([N+](=O)[O-])c4)c(Oc4cnc5[nH]ccc5c4)c3)CC2)=C(c2ccc(Cl)cc2)C1 [Compound 24, 4-(4-{[2-(4-chlorophenyl)-4,4-dimethylcyclohex-1-en-1-yl]methyl}piperazin-1-yl)-N-{[3-nitro-4-(tetrahydro-2H-pyran-4-ylmethoxy)phenyl]sulfonyl}-2-(1H-pyrrolo[2,3-b]pyridin-5-yloxy)benzamide] | 5.72 | < 0.01
3 |  | CC1(C)CCC(CN2CCN(c3ccc(C(=O)NS(=O)(=O)c4ccc(OCC5(F)CCOCC5)c([N+](=O)[O-])c4)c(Oc4cnc5[nH]ccc5c4)c3)CC2)=C(c2ccc(Cl)cc2)C1 [Compound 37, 4-(4-{[2-(4-chlorophenyl)-4,4-dimethylcyclohex-1-en-1-yl]methyl}piperazin-1-yl)-N-({4-[(4-fluorotetrahydro-2H-pyran-4-yl)methoxy]-3-nitrophenyl}sulfonyl)-2-(1H-pyrrolo[2,3-b]pyridin-5-yloxy)benzamide] | 5.27 | < 0.01
4 |  | CC1(C)CCC(CN2CCN(c3ccc(C(=O)NS(=O)(=O)c4cnc(NCC5(F)CCOCC5)c(Cl)c4)c(Oc4cnc5[nH]ccc5c4)c3)CC2)=C(c2ccc(Cl)cc2)C1 [Compound 242, N-[(5-chloro-6-{[(4-fluorotetrahydro-2H-pyran-4-yl)methyl]amino}pyridin-3-yl)sulfonyl]-4-(4-{[2-(4-chlorophenyl)-4,4-dimethylcyclohex-1-en-1-yl]methyl}piperazin-1-yl)-2-(1H-pyrrolo[2,3-b]pyridin-5-yloxy)benzamide] | 5.51 | 
5 |  | CC1(C)CCC(CN2CCN(c3ccc(C(=O)NS(=O)(=O)c4ccc(NC[C@H]5CC[C@H](C#N)CC5)c([N+](=O)[O-])c4)c(Oc4cnc5[nH]ccc5c4)c3)CC2)=C(c2ccc(Cl)cc2)C1 [Compound 276, 4-(4-{[2-(4-chlorophenyl)-4,4-dimethylcyclohex-1-en-1-yl]methyl}piperazin-1-yl)-N-[(4-{[(trans-4-cyanocyclohexyl)methyl]amino}-3-nitrophenyl)sulfonyl]-2-(1H-pyrrolo[2,3-b]pyridin-5-yloxy)benzamide] | 5.59 | 
6 |  | CC1(C)CCC(CN2CCN(c3ccc(C(=O)NS(=O)(=O)c4cnc(OCC5(F)CCN(C6COC6)CC5)c(Cl)c4)c(Oc4cnc5[nH]ccc5c4)c3)CC2)=C(c2ccc(Cl)cc2)C1 [Compound 277, N-[(5-chloro-6-{[4-fluoro-1-(oxetan-3-yl)piperidin-4-yl]methoxy}pyridin-3-yl)sulfonyl]-4-(4-{[2-(4-chlorophenyl)-4,4-dimethylcyclohex-1-en-1-yl]methyl}piperazin-1-yl)-2-(1H-pyrrolo[2,3-b]pyridin-5-yloxy)benzamide] | 5.26 | < 0.01
7 |  | CC1(C)CCC(CN2CCN(c3ccc(C(=O)NS(=O)(=O)c4ccc(OCC5(F)CCOCC5)c(Cl)c4)c(Oc4cnc5[nH]ccc5c4)c3)CC2)=C(c2ccc(Cl)cc2)C1 [Compound 286, N-({3-chloro-4-[(4-fluorotetrahydro-2H-pyran-4-yl)methoxy]phenyl}sulfonyl)-4-(4-{[2-(4-chlorophenyl)-4,4-dimethylcyclohex-1-en-1-yl]methyl}piperazin-1-yl)-2-(1H-pyrrolo[2,3-b]pyridin-5-yloxy)benzamide] | 5.66 | < 0.01
8 |  | CC1(C)CCC(CN2CCN(c3ccc(C(=O)NS(=O)(=O)c4ccc(OC[C@H]5CC[C@H](N6CCOCC6)CC5)c(Cl)c4)c(Oc4cnc5[nH]ccc5c4)c3)CC2)=C(c2ccc(Cl)cc2)C1 [Compound 303, N-[(3-chloro-4-{[trans-4-(morpholin-4-yl)cyclohexyl]methoxy}phenyl)sulfonyl]-4-(4-{[2-(4-chlorophenyl)-4,4-dimethylcyclohex-1-en-1-yl]methyl}piperazin-1-yl)-2-(1H-pyrrolo[2,3-b]pyridin-5-yloxy)benzamide] | 6.24 | 
9 |  | CC1(C)CCC(CN2CCN(c3ccc(C(=O)NS(=O)(=O)c4ccc(NCCCN(C5CC5)C5COC5)c([N+](=O)[O-])c4)c(Oc4cnc5[nH]ccc5c4)c3)CC2)=C(c2ccc(Cl)cc2)C1 [Compound 311, 4-(4-{[2-(4-chlorophenyl)-4,4-dimethylcyclohex-1-en-1-yl]methyl}piperazin-1-yl)-N-{[4-({3-[cyclopropyl(oxetan-3-yl)amino]propyl}amino)-3-nitrophenyl]sulfonyl}-2-(1H-pyrrolo[2,3-b]pyridin-5-yloxy)benzamide] | 5.6 | < 0.01
10 |  | CN1CCC[C@H]1C(=O)N1CCC(COc2ccc(S(=O)(=O)NC(=O)c3ccc(N4CCN(CC5=C(c6ccc(Cl)cc6)CC(C)(C)CC5)CC4)cc3Oc3cnc4[nH]ccc4c3)cc2Cl)CC1 [Compound 312, N-[(3-chloro-4-{[1-(1-methyl-L-prolyl)piperidin-4-yl]methoxy}phenyl)sulfonyl]-4-(4-{[2-(4-chlorophenyl)-4,4-dimethylcyclohex-1-en-1-yl]methyl}piperazin-1-yl)-2-(1H-pyrrolo[2,3-b]pyridin-5-yloxy)benzamide] | 6.47 | < 0.01
11 |  | CC1(C)CCC(CN2CCN(c3ccc(C(=O)NS(=O)(=O)c4ccc(OCC5(F)CCN(C6COC6)CC5)c(Cl)c4)c(Oc4cnc5[nH]ccc5c4)c3)CC2)=C(c2ccc(Cl)cc2)C1 [Compound 322, N-[(3-chloro-4-{[4-fluoro-1-(oxetan-3-yl)piperidin-4-yl]methoxy}phenyl)sulfonyl]-4-(4-{[2-(4-chlorophenyl)-4,4-dimethylcyclohex-1-en-1-yl]methyl}piperazin-1-yl)-2-(1H-pyrrolo[2,3-b]pyridin-5-yloxy)benzamide] | 5.48 | < 0.01
12 | 5.48 | CC1(C)CCC(CN2CCN(c3ccc(C(=O)NS(=O)(=O)c4ccc(NC[C@H]5CC[C@@](C)(O)CC5)c([N+](=O)[O-])c4)c(Oc4cnc5[nH]ccc5c4)c3)CC2)=C(c2ccc(Cl)cc2)C1 [Compound 337, 4-(4-{[2-(4-chlorophenyl)-4,4-dimethylcyclohex-1-en-1-yl]methyl}piperazin-1-yl)-N-[(4-{[(trans-4-hydroxy-4-methylcyclohexyl)methyl]amino}-3-nitrophenyl)sulfonyl]-2-(1H-pyrrolo[2,3-b]pyridin-5-yloxy)benzamide] |  | 
13 | 5.67 | CC1(C)CCC(CN2CCN(c3ccc(C(=O)NS(=O)(=O)c4ccc(NC[C@H]5CC[C@](C)(O)CC5)c([N+](=O)[O-])c4)c(Oc4cnc5[nH]ccc5c4)c3)CC2)=C(c2ccc(Cl)cc2)C1 [Compound 338, 4-(4-{[2-(4-chlorophenyl)-4,4-dimethylcyclohex-1-en-1-yl]methyl}piperazin-1-yl)-N-[(4-{[(cis-4-hydroxy-4-methylcyclohexyl)methyl]amino}-3-nitrophenyl)sulfonyl]-2-(1H-pyrrolo[2,3-b]pyridin-5-yloxy)benzamide] |  | 
